Experimental findings from patent US7906507B2, “Oxadiazoanthracene compounds for the treatment of diabetes” (TransTech Pharma, Inc., priority 2008, dated 2011) are described below.

Test [1] concerns the target T1, cloned human GLP-1 receptor (Homo sapiens, UniProt P43220).
T1 construct: expressed in transfected cells; host or cells: CHO or HEK-293 cells
As to the kind of experiment: Functional cell-based assay: cAMP functional assay. The conditions noted are these: for Emax: 0.5 h, percentage relative to maximal GLP-1-induced cAMP accumulation, na = not active in the assay, read-out: % activation. The procedure, abridged: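 Monolayer cells incubated 30 min at 37 °C with compounds (0.0001–100 μM) in IMDM containing 100 μM RO 20-1724 PDE inhibitor, 0.1% BSA and 2% DMSO. cAMP measured by HTRF.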
For orientation: Changes in cAMP serve as a functional read-out for many G protein-coupled receptors.

For a further test, the target named is T2, human GLP-1 receptor (Homo sapiens, UniProt P43220).
T2 construct: expressed in transfected cells; host or cells: HEK-293 or CHO cells (membranes)
As to the kind of experiment: Receptor binding assay: [125I]GLP-1 (aa 7-36) equilibrium radioligand binding. The conditions noted are these: membranes from HEK-293 or CHO cells expressing the human GLP-1 receptor; room temp 120 min. How it is done: Reactions were carried out in 96-well plates. Compound was diluted in 20% DMSO/water. The final assay concentration ranging from 0.1 nM to 100 uM in 2% final DMSO concentration was used. […] Plates were washed 5 times with cold 25 mM Tris-HCL, pH 7.5 containing 0.05% bovine serum albumin (BSA). Following filtration, 50 uL of Microscint PS (Packard part no. 6013631) was added, plates were sealed with TopSeal-A adhesive seals (Packard part no. 6005185). ^125I isotope bound to the Unifilter-96 GF/C plates was counted using a TopCount instrument (Packard).
Percent inhibition of [^125I] […] The IC50 values were calculated by fitting the data using parameters for a sigmoidal dose response, variable slope nonlinear regression (GraphPAD Prizm, San Diego, Calif.) according to the equation: Y=Bottom+(Top-Bottom)/(1+10^((Log EC50−X)*HillSlope)) wherein, X is the logarithm of concentration and Y is the response, and Y starts at Bottom and goes to Top with a sigmoid shape. This is identical to the four parameter logistic equation.

T1 sequence (P43220 24-463): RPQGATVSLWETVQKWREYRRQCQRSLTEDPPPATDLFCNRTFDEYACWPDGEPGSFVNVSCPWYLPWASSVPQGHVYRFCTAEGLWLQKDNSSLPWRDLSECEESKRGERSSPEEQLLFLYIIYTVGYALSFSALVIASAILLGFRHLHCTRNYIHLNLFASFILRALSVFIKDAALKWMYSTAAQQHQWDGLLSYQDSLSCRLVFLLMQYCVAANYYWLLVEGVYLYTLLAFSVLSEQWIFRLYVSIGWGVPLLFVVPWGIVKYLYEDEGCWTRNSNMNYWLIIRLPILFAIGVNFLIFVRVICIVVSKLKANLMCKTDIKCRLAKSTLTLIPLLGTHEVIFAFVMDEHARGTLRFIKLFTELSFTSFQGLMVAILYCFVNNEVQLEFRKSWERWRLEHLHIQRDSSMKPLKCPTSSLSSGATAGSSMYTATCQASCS
T2 sequence (P43220 24-463): as above

Usually EC50 stands for the concentration that produces a half-maximal response. Lower therefore signals an effect from little substance. Take `N#Cc1ccc(-c2ccc(C[C@H](NC(=O)[C@@H]3Cc4cc5c(cc4CN3C(=O)c3ccccc3)OC(c3ccc(OCc4ccc(Cl)c(Cl)c4)cc3)C(=O)N5)C(=O)O)cc2)cc1` (stereo partly drawn) [Example 15, (S)-2-({(S)-6-Benzoyl-3-[4-(3,4-dichloro-benzyloxy)-phenyl]-2-oxo-2,3,5,6,7,8-hexahydro-1H-4-oxa-1,6-diaza-anthracene-7-carbonyl}-amino)-3-(4′-cyano-biphenyl-4-yl)-propionic acid]: in test [1], the EC50 was determined as 145 nM and the Emax stood at 99.6%. Further, on human GLP-1 receptor, the “% binding vs [125I]GLP-1” value worked out at 68%.

As to `N#Cc1ccc(-c2ccc(C[C@H](NC(=O)[C@@H]3Cc4cc5c(cc4CN3Cc3ccccn3)OC(c3ccc(OCc4ccc(Cl)c(Cl)c4)cc3)C(=O)N5)C(=O)O)cc2)cc1` (stereo partly drawn) [Example 39, (S)-3-(4′-Cyano-biphenyl-4-yl)-2-({(S)-3-[4-(3,4-dichloro-benzyloxy)-phenyl]-2-oxo-6-pyridin-2-ylmethyl-2,3,5,6,7,8-hexahydro-1H-4-oxa-1,6-diaza-anthracene-7-carbonyl}-amino)-propionic acid], in test [1], the EC50 was 130 nM and the Emax was 56%. Also, on human GLP-1 receptor, the “% binding vs [125I]GLP-1” value is recorded as 60%.

On to `CC[C@H](c1ccccc1)N1Cc2cc3c(cc2C[C@H]1C(=O)N[C@@H](Cc1ccc(-c2ccc(C#N)cc2)cc1)C(=O)O)N(C)C(=O)[C@H](c1ccc(OCc2ccc(Cl)c(Cl)c2)cc1)O3` [Example 88, (S)-3-(4′-Cyano-biphenyl-4-yl)-2-{[(3S,7S)-3-[4-(3,4-dichloro-benzyloxy)-phenyl]-1-methyl-2-oxo-6-((R)-1-phenyl-propyl)-2,3,5,6,7,8-hexahydro-1H-4-oxa-1,6-diaza-anthracene-7-carbonyl]-amino}-propionic acid], for which the “% binding vs [125I]GLP-1” value on human GLP-1 receptor turned out to be 60%.

As for `CC[C@H](c1ccccc1)N1Cc2cc3c(cc2C[C@H]1C(=O)N[C@@H](Cc1ccc(-c2ccc(C#N)cc2)cc1)C(=O)O)N(C)C(=O)[C@@H](c1ccc(OCc2ccc(Cl)c(Cl)c2)cc1)O3` [Example 89], the “% binding vs [125I]GLP-1” value at human GLP-1 receptor is 44%.

As for `CC[C@@H](c1ccccc1)N1Cc2cc3c(cc2C[C@H]1C(=O)N[C@@H](Cc1ccc(-c2ccc(OC)cc2)cc1)C(=O)O)N(C)C(=O)[C@@H](c1ccc(OCc2ccc(Cl)c(Cl)c2)cc1)O3` [Example 91, (S)-2-{[(3R,7S)-3-[4-(3,4-Dichloro-benzyloxy)-phenyl]-1-methyl-2-oxo-6-((S)-1-phenyl-propyl)-2,3,5,6,7,8-hexahydro-1H-4-oxa-1,6-diaza-anthracene-7-carbonyl]-amino}-3-(4′-methoxy-biphenyl-4-yl)-propionic acid], in test [1], the EC50 was determined as 725 nM and the Emax amounted to 39%.

Consider `CC[C@@H](c1ccccc1)N1Cc2cc3c(cc2C[C@H]1C(=O)N[C@@H](Cc1ccc(-c2ccc(F)cc2)cc1)C(=O)O)N(C)C(=O)[C@@H](c1ccc(OCc2ccc(Cl)c(Cl)c2)cc1)O3` [Example 92, (S)-2-{[(3R,7S)-3-[4-(3,4-Dichloro-benzyloxy)-phenyl]-1-methyl-2-oxo-6-((S)-1-phenyl-propyl)-2,3,5,6,7,8-hexahydro-1H-4-oxa-1,6-diaza-anthracene-7-carbonyl]-amino}-3-(4′-fluoro-biphenyl-4-yl)-propionic acid], for which, in test [1], the midpoint of the response, the EC50, lay at 723 nM and the Emax turned out to be 30%.

`CC[C@@H](c1ccccc1)N1Cc2cc3c(cc2C[C@H]1C(=O)N[C@@H](Cc1ccc(-c2ccc(Cl)cc2)cc1)C(=O)O)N(C)C(=O)[C@H](c1ccc(OCc2ccc(Cl)c(Cl)c2)cc1)O3` [Example 93, (S)-3-(4′-Chloro-biphenyl-4-yl)-2-{[(3S,7S)-3-[4-(3,4-dichloro-benzyloxy)-phenyl]-1-methyl-2-oxo-6-((S)-1-phenyl-propyl)-2,3,5,6,7,8-hexahydro-1H-4-oxa-1,6-diaza-anthracene-7-carbonyl]-amino}-propionic acid]: in test [1], it took 138 nM to reach a half-maximal effect (EC50) and the Emax was 31%.

As to `CC[C@@H](c1ccccc1)N1Cc2cc3c(cc2C[C@H]1C(=O)N[C@@H](Cc1ccc(-c2ccc(OC)cc2)cc1)C(=O)O)N(C)C(=O)[C@H](c1ccc(OCc2ccc(Cl)c(Cl)c2)cc1)O3` [Example 94, (S)-2-{[(3S,7S)-3-[4-(3,4-Dichloro-benzyloxy)-phenyl]-1-methyl-2-oxo-6-((S)-1-phenyl-propyl)-2,3,5,6,7,8-hexahydro-1H-4-oxa-1,6-diaza-anthracene-7-carbonyl]-amino}-3-(4′-methoxy-biphenyl-4-yl)-propionic acid], in test [1], the EC50 was determined as 424 nM and the Emax is 41%.

For `CC[C@@H](c1ccccc1)N1Cc2cc3c(cc2C[C@H]1C(=O)N[C@@H](Cc1ccc(-c2ccc(F)cc2)cc1)C(=O)O)N(C)C(=O)[C@H](c1ccc(OCc2ccc(Cl)c(Cl)c2)cc1)O3` [Example 95, (S)-2-{[(3S,7S)-3-[4-(3,4-Dichloro-benzyloxy)-phenyl]-1-methyl-2-oxo-6-((S)-1-phenyl-propyl)-2,3,5,6,7,8-hexahydro-1H-4-oxa-1,6-diaza-anthracene-7-carbonyl]-amino}-3-(4′-fluoro-biphenyl-4-yl)-propionic acid], in test [1], the midpoint of the response, the EC50, lay at 364 nM and the Emax was 49%. For the same molecule, the “% binding vs [125I]GLP-1” value on human GLP-1 receptor came to 65%.

`Cc1noc(C)c1S(=O)(=O)N1Cc2cc3c(cc2C[C@H]1C(=O)N[C@@H](Cc1ccc(-c2ccc(C#N)cc2)cc1)C(=O)O)N(C)C(=O)C(c1ccc(OCc2ccc(Cl)c(Cl)c2)cc1)O3` (stereo partly drawn) [Example 96, (S)-3-(4′-Cyano-biphenyl-4-yl)-2-{[(S)-3-[4-(3,4-dichloro-benzyloxy)-phenyl]-6-(3,5-dimethyl-isoxazole-4-sulfonyl)-1-methyl-2-oxo-2,3,5,6,7,8-hexahydro-1H-4-oxa-1,6-diaza-anthracene-7-carbonyl]-amino}-propionic acid]: in test [1], the EC50 was 362 nM and the Emax came out at 8.5%.

As to `CC[C@@H](c1ccccc1)N1Cc2cc3c(cc2C[C@H]1C(=O)N[C@H](Cc1ccc(-c2ccc(C#N)cc2)cc1)C(=O)O)N(C)C(=O)[C@@H](c1ccc(OCc2ccc(Cl)c(Cl)c2)cc1)O3` [Example 98, (R)-3-(4′-Cyano-biphenyl-4-yl)-2-{[(3R,7S)-3-[4-(3,4-dichloro-benzyloxy)-phenyl]-1-methyl-2-oxo-6-((S)-1-phenyl-propyl)-2,3,5,6,7,8-hexahydro-1H-4-oxa-1,6-diaza-anthracene-7-carbonyl]-amino}-propionic acid], in test [1], the 50% effective concentration (EC50) was 626 nM and the Emax was determined as 42%.

On to `O=C1Nc2cc3c(cc2OC1c1ccc(OCc2ccc(Cl)c(Cl)c2)cc1)CN(C(=O)c1ccccc1)[C@H](C(=O)N[C@@H](Cc1ccc(Oc2ccncc2)cc1)C(=O)O)C3` (stereo partly drawn) [Example 99, (S)-2-({(S)-6-Benzoyl-3-[4-(3,4-dichloro-benzyloxy)-phenyl]-2-oxo-2,3,5,6,7,8-hexahydro-1H-4-oxa-1,6-diaza-anthracene-7-carbonyl}-amino)-3-[4-(pyridin-4-yloxy)-phenyl]-propionic acid], for which, in test [1], a half-maximal effect (EC50) was put at 1000 nM and the Emax was 28%.
